According to US20090176741A1, “MODULATION OF THE IMMUNE SYSTEM BY INOSITOL PHOSPHOLIPIDS” (priority 2006, published 2009):

Legend:
T cells [1] = assay: T cell activation measured by IL-2 cytokine production; type: cell-based; details: for T cell activation measured by IL-2 cytokine production: PMA + calcium ionophore A23187
Method: A CD1d transfected epithelial cell line T84D was pulsed with alpha-GalactosylCeramide and co-cultured with PI at different concentrations. NKT cell activation was determined by measurement of IL-2 present in the supernatants. FIG. 2: Phosphatidyl-inositol but not myo-inositol blocks CD1d dependent NKT cell activation. A CD1d transfected epithelial cell line T84D was pulsed with a GalactosylCeramide and co-cultured with either solvent control, PI or myo-inositol. NKT cell activation was determined by measurement of IL-2 present in the supernatants. FIG. 3: Differential effect of PI and PS on cellular viability and immune suppression. T cells were suspended at 10^6 cells/ml in 24-wells plates (1 ml suspension per well). Cells were either left untreated (PMA 0 Cal 0) or activated with 5 ng/ml PMA +0.1 μg/ml calcium ionophore A23187 (PMA 5 ng/ml Cal 0.1 ug/ml) in the presence of PI or PS at the indicated concentrations (expressed in pg/ml). Panel A: Following a 24 hour incubation period in the presence of the indicated lipids and stimuli cellular viability was measured using flow cytometric detection of 7-AAD stained cells. […] FIG. 4: IPL strongly affects early survival in oxazolone colitis model. For experimental details see Example 2A. FIG. 5: Suppression of IL-2 production by intestinal T cells upon IPL intrarectal treatment of oxazolone-colitis mice. Mice were treated with saline (group A) or PI (group B) twenty minutes prior to challenge with oxazolone to induce colitis. Mice were sacrificed and intestinal T cells were analyzed for IL-2 production upon stimulation by aCD3/aCD28 during a period of 48 hours (panel A) or 72 hours (panel B). ALN=axillair LN; MLN=[…] LN; ILN=iliacal LN. For further details see Example 2A. FIG. 6: Treatment with IPL (non-liposomal aerosol) prevents the typical histo-pathological changes that are associated with an asthma mouse model. For experimental details see Example 2B. FIG. 7: Treatment with PI (aerosol) prevents the eosinophilia that is associated with an asthma mouse model. For experimental details see Example 2B. FIG. 8: effects of intraperitoneal injection of PI in the TNBS colitis model. […] B The percentage of weight during TNBS colitis is shown. Each dot represents the mean of weights of each group per 0.5 day. Error bars indicate the standard error of the mean. Asterisks indicate significant differences (p<0.05) between TNBS treated mice that received i.p. injections of PI and saline. […] C Histopathology of the whole colon was assessed by blindly scoring each separate field of view at a 4× magnification by means of a TNBS score. […]

TNBS colitis = TNBS colitis model, intraperitoneal PI; type: in vivo, mice
Method: Colitis was induced as described previously (Scheiffele, F. and Fuss, I J., 2001, Curr. Protocols Immunol. 15.19.1-15.19.14). In short, on day-7 SJL mice were sensitized epicutaneously with 150 μl 2.5% 2,4,6-trinitrobenzene sulfonic acid (TNBS; Sigma) in 50% ethanol. On day 0, mice were challenged, under anesthesia of isoflurane gas, by rectal administration of 150 μl 2.5% TNBS in 50% ethanol. Negative control mice were challenged with 50% ethanol only. […] Positive (TNBS treated) and negative (ethanol treated) control mice were treated with an intraperitoneal (i.p.) injection of 150 μl of saline at 0, 12, 24, 36, 48 and 60 h. The PI treatment group was treated with […] of 5 mg/ml PI suspended in saline at the same time points. Mice were weighted at 0, 12, 24, 36, 48 and 60 h and were sacrificed at 60 h. Colonic tissue was folded into Swiss rolls, fixed in 4% natural buffered formalin solution and embedded in paraffin. Sections of 5 μm thickness were generated, stained with hematoxylin (Vector Laboratories) and eosin (Sigma) and analyzed by microscopy. Histology was quantified by scoring each separate field of view at a 4× magnification from distal to proximal by means of a previously described TNBS scoring system (Scheiffele, F. and Fuss, I J., 2001, Curr. Protocols Immunol. 15.19.1-15.19.14). Single cell suspensions were made of iliac lymph nodes (ILNs) and mesenteric lymph nodes (MLNs) by sieving trough an 80 μm filter and subsequently lymphocytes were cultured and stimulated with 2 μg/ml anti-CD3 and 2 μg/ml anti-CD28 antibodies. After 48 h of culture the supernatant was collected and release of the pro-inflammatory cytokines IFN-γ and IL-17 (Zhang, Z. et al., 2006, Inflamm. Bowel Dis., 12:382-388) and the anti-inflammatory cytokine IL-10 were measured by means of ELISA (IL-17) or CBA (IFN-γ and IL-10).

T cells [2] = assay: Cellular viability of T cells (flow cytometric 7-AAD detection); type: cell-based; details: FIG. 3A
Method: (§1) A CD1d transfected epithelial cell line T84D was pulsed with alpha-GalactosylCeramide and co-cultured with PI at different concentrations. NKT cell activation was determined by measurement of IL-2 present in the supernatants. FIG. 2: Phosphatidyl-inositol but not myo-inositol blocks CD1d dependent NKT cell activation. A CD1d transfected epithelial cell line T84D was pulsed with a GalactosylCeramide and co-cultured with either solvent control, PI or myo-inositol. NKT cell activation was determined by measurement of IL-2 present in the supernatants. FIG. 3: Differential effect of PI and PS on cellular viability and immune suppression. T cells were suspended at 10^6 cells/ml in 24-wells plates (1 ml suspension per well). Cells were either left untreated (PMA 0 Cal 0) or activated with 5 ng/ml PMA +0.1 μg/ml calcium ionophore A23187 (PMA 5 ng/ml Cal 0.1 ug/ml) in the presence of PI or PS at the indicated concentrations (expressed in pg/ml). Panel A: Following a 24 hour incubation period in the presence of the indicated lipids and stimuli cellular viability was measured using flow cytometric detection of 7-AAD stained cells. […] FIG. 4: IPL strongly affects early survival in oxazolone colitis model. For experimental details see Example 2A. FIG. 5: Suppression of IL-2 production by intestinal T cells upon IPL intrarectal treatment of oxazolone-colitis mice. Mice were treated with saline (group A) or PI (group B) twenty minutes prior to challenge with oxazolone to induce colitis. Mice were sacrificed and intestinal T cells were analyzed for IL-2 production upon stimulation by aCD3/aCD28 during a period of 48 hours (panel A) or 72 hours (panel B). ALN=axillair LN; MLN=mediastinal LN; ILN=iliacal LN. For further details see Example 2A. FIG. 6: Treatment with IPL (non-liposomal aerosol) prevents the typical histo-pathological changes that are associated with an asthma mouse model. For experimental details see Example 2B. […] C Histopathology of the whole colon was assessed by blindly scoring each separate field of view at a 4× magnification by means of a TNBS score. […]

OVA-induced asthma = assay: OVA asthma model, intra-tracheal PI; type: in vivo, mice; details: PI intra-tracheally before OVA aerosol challenge
Method: On days one and eight male wildtype Balb/c mice (Charles Rivers) of 7-10 weeks old were sensitized by intra-peritoneal (i.p.) injection of 20 μg of OVA (Sigma), emulsified in 2.25 mg of alum (AlumImuject; Pierce). On days 15, 16 and 17 mice were sedated and received 80 μl of one of three solutions of PI (0 μg/ml, 200 μg/ml or 2 mg/ml) intra-tracheally (i.t). Subsequently the mice were challenged by 20 minutes of inhalation exposure to 60 μl of aerosols containing OVA (1% in saline). All three groups contained 8 mice. Mice were sacrificed at day 18.
Lungs were flushed with 3 ml saline and the cells in this Broncho Alveolar Lavage (BAL) were identified and quantified through FACS analysis. Subsequently the lungs were freeze-fixed, cut into 5 μm tissue sections and stained with May-Grunwald-Giemsa (MGG). The stained sections were examined for the presence of inflammatory cell infiltration such as eosinophils.

[3] = Observation after intravenous PI; type: in vivo, mice; details: 200 μl of PI 2 mg/ml (400 μg) intravenously, 3 hour observation period
Excerpt: It will be recognized by those skilled in the art that the optimal quantity and spacing of individual dosages for achieving the therapeutic effects of the pharmaceutical composition, food item or food supplement described herein may easily be determined by the skilled person. They will be determined by the nature and extent of the condition being treated, as well as by the form, route and site of administration, and the particular individual undergoing treatment, and that such optima can be determined by conventional techniques. Typically, the treatment will involve the administration of inositol phospholipid in amount of approximately 0.001 to 1 gram , preferably 0.005 to 0.5 gram, more preferably 0.01 to 0.1 gram per kilogram of body weight per 24 hours. It will also be appreciated by those skilled in the art that the optimal dosage regimen, i.e. the number of doses, can be ascertained using conventional course of treatment determination tests well known in the art. […] Generally speaking, a therapeutic dosing regimen will involve the administration of the selected dosage formulation comprising an inositol phospholipid, e.g. a PI aerosol spray, at least once daily, preferably one to four times daily, until the symptoms have subsided. Or given in times of remission, in order to prevent a disease flare-up (exacerbation). […]

[4] = system: DN32 cells (NKT cell line) co-cultured with CD1d transfected T84D cells; assay: CD1d-restricted NKT cell activation (T84D/DN32 co-culture, IL-2 ELISA); type: cell-based, murine; details: for CD1d dependent NKT cell activation (IL-2 present in the supernatants): solvent control, PI or myo-inositol, FIG. 2
Method: as §1, with “B).” for “B). ALN=axillair LN; MLN=mediastinal LN; ILN=iliacal LN. For further details see Example 2A. FIG. 6: Treatment with IPL (non-liposomal aerosol) prevents the typical histo-pathological changes that are associated with an asthma mouse model. For experimental details see Example 2B.”
On day 0, T84D cells (a human epithelial cell line transfected with CD1d) were incubated overnight with a GalCer (10 mg/ml). […] Supernatants were collected and IL-2 cytokine production by DN32 (reflecting T cell activation) was determined by means of ELISA.

[5] = system: activated peripheral blood cells; details: Caselli et al. 1992; cited from earlier work
oxazolone colitis = assay: Oxazolone colitis model, intra-rectal PI; type: in vivo, mice
Method: On day 0 male wild type black/6 mice (Charles Rivers) of 7-10 weeks old were sensitized epicutaneously with 150 μl 3% 4-ethoxymeyhylene-2-phenyl-oxazolin-5-one (oxazolone; Sigma) in 100% ethanol. At day 5, mice were challenged, under anesthesia of ketamine (80 mg/kg) and xylazine (10 mg/kg), by rectal administration of 100 μl 2% oxazolone in aqueous ethanol (50%). Twenty minutes prior to challenge mice were treated intra-rectally with 100 μl saline (control) or PI (2 mg/ml). All […] groups contained 8 mice. Mice were weighted at day 5, 6, 7, and 8 and were sacrificed at day 8.
Colonic tissue was fixed with 4% natural buffered formalin solution, embedded in paraffin, cut into 5μ tissue sections, and stained with hematoxylin and eosin (H&E). Using a score that has been described previously for oxazolone colitis (REF), the stained sections were examined for evidence of colitis. Spleen, axillary lymph nodes (ALN), mesenteric lymph nodes (MLN) and iliacal lymph nodes (ILN) were isolated and stimulated ex-vivo with either PBS (control) or with aCD3/aCD28 (100 μl of 2 μg/ml each) in IMDM medium. After 48 and 72 hours, the production of IL-2 was measured by means of ELISA (Beckton & Dickinson).

[6] = anti-CD3/anti-CD28 re-stimulation, 48 h, vs saline treated group, p<0.05, FIG. 8D
[7] = 24 hour incubation, untreated or 5 ng/ml PMA + 0.1 μg/ml A23187

With phosphatidyl inositol [PI] the “T cell activation measured by IL-2 cytokine production” value (T cells [1]; FIG. 3B) was “inhibitory effect”, the “reversibility of the suppressive effect” value (T cells [1]; data not shown) was “reversible” and the T cell activation (T cells [1]; phorbol ester and calcium ionophore, or stimulation of CD3 and CD28, FIG. 3B) was “directly inhibit”. For the same molecule, the “general appearance (fur, behavior)” value (TNBS colitis; PI 5 mg/ml i.p. every 12 h vs saline, FIG. 8A) was “appeared less diseased”, the weight loss (TNBS colitis; PI i.p. vs control saline treatment, FIG. 8B) was “dramatic reduction in weight loss” and the “start of weight recovery” value (TNBS colitis; PI i.p., saline treated mice did not re-gain weight, FIG. 8B) was 1.5 days. For the same molecule, the IL-10 production (TNBS colitis; anti-CD3/anti-CD28 re-stimulation, 48 h, vs saline treated group, FIG. 8D) was “no difference”, the “IFN-γ production by MLNs” value (TNBS colitis; [6]) was “significantly less production” and the “IL-17 production by ILNs and MLNs” value (TNBS colitis; [6]) was “significantly less production”. The “colon histology (TNBS score)” value (TNBS colitis; day 3, field of view number 5, FIG. 8C) was “near normal histology”, the cellular viability (T cells [2]; [7]) was “does not significantly affect cellular viability” and the cellular viability (T cells [2]; up to the highest dose tested (100 μg/ml)) was “does not affect cellular viability”. For the same molecule, the “histopathological changes of the lungs” value (OVA-induced asthma; FIG. 6) was “reduces”, the “influx of eosinophils (BAL)” value (OVA-induced asthma; FIG. 7) was “strongly inhibits” and the “symptoms or adverse signs” value [3] was “did not show any symptoms or adverse signs”. The “NKT cell activation (IL-2 present in the supernatants)” value ([4]; T84D pulsed with alpha-GalactosylCeramide, PI at different concentrations, FIG. 1) was “Dose-dependent inhibition”, the “CD1d dependent NKT cell activation (IL-2 present in the supernatants)” value [4] was “blocks” and the “DNA synthesis in activated peripheral blood cells” value [5] was “only partially effective”. For the same molecule, the weight loss (oxazolone colitis; 100 μl PI 2 mg/ml intra-rectally 20 min prior to oxazolone challenge) was “diminished weight loss”, the survival (oxazolone colitis; 100 μl PI 2 mg/ml intra-rectally 20 min prior to oxazolone challenge, FIG. 4) was “increased survival” and the “IL-2 production upon ex-vivo stimulation of intestinal T cells” value (oxazolone colitis; aCD3/aCD28 stimulation, 48 and 72 hours, FIG. 5) was “suppressed”.
In the case of “phosphatidyl serine [PS, reference compound]”, the “T cell activation measured by IL-2 cytokine production” value (T cells [1]; FIG. 3B) is given as “stimulatory effect”, the cellular viability (T cells [2]; [7]) is given as “toxic for activated cells in a dose-dependent manner” and the “DNA synthesis in activated peripheral blood cells” value [5] is given as “inhibition”.
In the case of `O[C@H]1[C@H](O)[C@@H](O)[C@H](O)[C@@H](O)[C@H]1O` [myo-inositol, reference compound], the “CD1d dependent NKT cell activation (IL-2 present in the supernatants)” value [4] is reported as “no significant suppressive effect”.
